Active and inactive are the calls of the source. The calls are words filed in the database; no cut-off is given here. Where a SMILES comes first, the peptide text is derived from it.
Assays:
[1] = target: Proteinase-activated receptor 2 (Homo sapiens) (UniProt P55085); assay: Antagonist activity at PAR2 in human HT-29 cells assessed as inhibition of 2f-LIGRLO-NH2-stimulated intracellular calcium release at 10 uM preincubated for 30 mins followed by 2f-LIGRLO-NH2 stimulation measured for 60 secs by Fluo-3 AM dye based FLIPR assay relative to control; type: functional, cell-based
[2] = target: Proteinase-activated receptor 2 (Homo sapiens) (UniProt P55085); assay: Agonist activity at PAR2 in human HT-29 cells assessed as increase in intracellular calcium release at 10 uM incubated for 30 mins measured for 60 secs by Fluo-3 AM dye based FLIPR assay relative to 2f-LIGRLO-NH2; type: functional, cell-based
[3] = target: T1, Proteinase-activated receptor 2 (Homo sapiens, UniProt P55085); assay: Antagonist activity at PAR2 in human HT-29 cells assessed as inhibition of 2f-LIGRLO-NH2-stimulated intracellular calcium release preincubated for 30 mins followed by 2f-LIGRLO-NH2 stimulation measured for 60 sec by Fluo-3 AM dye based FLIPR assay; type: functional, cell-based
T1 sequence (P55085 whole entry): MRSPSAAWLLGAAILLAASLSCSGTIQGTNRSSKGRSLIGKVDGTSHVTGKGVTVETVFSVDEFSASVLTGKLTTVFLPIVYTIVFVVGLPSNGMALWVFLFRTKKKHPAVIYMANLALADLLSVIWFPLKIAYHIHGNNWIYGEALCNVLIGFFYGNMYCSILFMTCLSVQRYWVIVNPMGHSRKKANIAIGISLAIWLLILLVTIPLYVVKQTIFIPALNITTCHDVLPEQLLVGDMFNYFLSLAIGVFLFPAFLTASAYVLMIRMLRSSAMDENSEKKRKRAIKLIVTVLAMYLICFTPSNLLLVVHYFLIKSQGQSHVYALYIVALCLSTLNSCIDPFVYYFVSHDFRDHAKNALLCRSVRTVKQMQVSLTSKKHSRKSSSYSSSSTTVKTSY

[4] = Solubility of compound; type: physicochemical
[5] = target: T1, Proteinase-activated receptor 2; assay: Agonist activity at PAR2 in human HT-29 cells assessed as increase in intracellular calcium release incubated for 30 mins measured for 60 secs by Fluo-3 AM dye based FLIPR assay relative to 2f-LIGRLO-NH2; type: functional, cell-based
[6] = Elimination half life in Wistar rat liver homogenate at 10 uM by LC/MS/MS analysis; type: ADME, tissue-based; details: read-out: beta t1/2
[7] = Half life in Wistar rat plasma at 10 uM by LC/MS/MS analysis; type: ADME, cell-free
[8] = Stability in Wistar rat plasma at 10 uM measured up to 3 hrs by LC/MS/MS analysis; type: ADME, cell-free; details: read-out: Stability
[9] = target: T1, Proteinase-activated receptor 2; assay: Antagonist activity at PAR2 in human HT-29 cells assessed as inhibition of endogenous trypsin-stimulated intracellular calcium release by Fluo-3 AM dye based FLIPR assay; type: functional, cell-based
Rattus norvegicus = assay: Antiinflammatory activity in Wistar rat acute paw edema model assessed as inhibition of 2f-LIGRLO-NH2-induced […] swelling at 10 mg/kg administered via oral gavage for 2 hrs followed by 2f-LIGRLO-NH2 addition measured up to 3 hrs; type: functional, organism-based
[10] = AUC (0 to 6 hrs) in Wistar rat at 10 mg/kg, po administered via gavage; type: ADME, organism-based; parameters: time < 6 hr, dose 10 mg/kg, route oral; details: in vivo
[11] = Time at which maximum plasma concentration stays above 2 times in vitro PAR2 IC50 in Wistar rat at 10 mg/kg, po administered via gavage; type: ADME, organism-based; details: in vivo

inhibition [1]	Activity [2]	Structure (SMILES)	other results
43 to 69%		CC[C@H](C)[C@H](NC(=O)[C@H](CC1CCCCC1)NC(=O)c1ccno1)C(=O)N1CCC(c2cc(OC)ccc2OC)CC1	
	26%	CC[C@H](C)[C@H](NC(=O)[C@H](CC1CCCCC1)NC(=O)c1cc(N)n[nH]1)C(=O)N1CCC2(C=Cc3ccccc32)CC1	
53%		CC[C@H](C)[C@H](NC(=O)[C@H](CC1CCCCC1)NC(=O)c1c[nH]cn1)C(=O)N1CCC2(C=Cc3ccccc32)CC1	IC50 ([3]; read-out: IC50): 3100 nM; solubility [4]: Soluble
	62 to 70%	CC[C@H](C)[C@H](NC(=O)[C@H](CC1CCCCC1)NC(=O)c1ccno1)C(=O)N1CCC2(CC1)CC(=O)c1ccccc1O2	EC50 [5]: 700 to 1800 nM
	81%	CC[C@H](C)[C@H](NC(=O)[C@H](CC1CCCCC1)NC(=O)c1ccno1)C(=O)N1CCC(NC(C)=O)(c2ccccc2)CC1	
	30 to 50%	CC[C@H](C)[C@H](NC(=O)[C@H](CC1CCCCC1)NC(=O)c1ccno1)C(=O)N1CCN(c2ccccc2)CC1	
	53 to 81%	NC(=O)C[C@H](NC(=O)[C@H](CC1CCCCC1)NC(=O)c1ccno1)C(=O)N1CCC2(C=Cc3ccccc32)CC1	
38%		CC[C@H](C)[C@H](NC(=O)[C@H](CC1CCCCC1)NC(=O)c1ccno1)C(=O)N1CC[C@H]2CCCC[C@H]2[C@H]1C(=O)NC(C)(C)C	
10 to 16%		O=C(N[C@@H](CC1CCCCC1)C(=O)N[C@@H](CC1CCCCC1)C(=O)N1CCC2(C=Cc3ccccc32)CC1)c1ccno1	
	30 to 50%	CC[C@H](C)[C@H](NC(=O)[C@H](CC1CCCCC1)NC(=O)c1ccno1)C(=O)N1CCN(c2ccc(F)cc2)CC1	
43%		CC[C@H](C)[C@H](NC(=O)[C@H](CC1CCCCC1)NC(=O)c1nc[nH]n1)C(=O)N1CCC2(C=Cc3ccccc32)CC1	
43 to 69%		CC[C@H](C)[C@H](NC(=O)[C@H](CC1CCCCC1)NC(=O)c1ccno1)C(=O)N1CCC(O)(c2ccc(C(F)(F)F)cc2C(F)(F)F)CC1	
64%		CC[C@H](C)[C@H](NC(=O)[C@H](CC1CCCCC1)NC(=O)c1ccno1)C(=O)N1CCCC[C@H]1C(=O)NC(C)(C)C	
		CC[C@H](C)[C@H](NC(=O)[C@H](CC(C)C)NC(=O)[C@@H](N)CO)C(=O)NCC(=O)N[C@@H](CCCNC(=N)N)C(=O)N[C@@H](CC(C)C)C(N)=O (H-SLIGRL-NH2)	half-life at 10 µM [6]: 15 min; half-life at 10 µM [7]: 20 min
92%		CC[C@H](C)[C@H](NC(=O)[C@H](CC1CCCCC1)NC(=O)c1ccno1)C(=O)N1CCC2(C=Cc3ccccc32)CC1	remaining at 3 h, 10 µM [8]: > 75%; half-life at 10 µM [6]: 60 min; IC50 ([3]; read-out: IC50): 1100 to 1700 nM; IC50 ([3]; read-out: pIC50 (converted)): 1580 nM; IC50 [9]: 3600 nM
	65%	CC[C@H](C)[C@H](NC(=O)[C@H](CC1CCCCC1)NC(=O)c1ccno1)C(=O)N1CCc2cc(OC)c(OC)cc2C1	
	53 to 81%	O=C(N[C@@H](CC1CCCCC1)C(=O)N[C@@H](Cc1cnc[nH]1)C(=O)N1CCC2(C=Cc3ccccc32)CC1)c1ccno1	

inhibition [1]	Activity [2]	Structure (SMILES)	other results
10 to 16%		CC(C)(C)[C@H](NC(=O)[C@H](CC1CCCCC1)NC(=O)c1ccno1)C(=O)N1CCC2(C=Cc3ccccc32)CC1	
70%		CC[C@H](C)[C@H](NC(=O)[C@H](CC1CCCCC1)NC(=O)c1cscn1)C(=O)N1CCC2(C=Cc3ccccc32)CC1	
91%		CC[C@H](C)[C@H](NC(=O)[C@H](CC1CCCCC1)NC(=O)c1cc(N)no1)C(=O)N1CCC2(C=Cc3ccccc32)CC1	remaining at 3 h, 10 µM [8]: > 75%; half-life at 10 µM [6]: 15 min; inhibition (Rattus norvegicus): Active; solubility [4]: Soluble
77%		CC[C@H](C)[C@H](NC(=O)[C@H](CC1CCCCC1)NC(=O)c1ccno1)C(=O)N1CCC2(CCc3ccccc3O2)CC1	IC50 ([3]; read-out: IC50): 1900 nM
	53 to 81%	C[C@@H](O)[C@H](NC(=O)[C@H](CC1CCCCC1)NC(=O)c1ccno1)C(=O)N1CCC2(C=Cc3ccccc32)CC1	
93%		CC[C@H](C)[C@H](NC(=O)[C@H](CC1CCCCC1)NC(=O)c1ccno1)C(=O)N1CCC(c2ccccc2)CC1	remaining at 3 h, 10 µM [8]: > 75%; half-life at 10 µM [6]: 30 min; AUC(0-t) at 6 h [10]: 1960 ng·h/mL; Time [11]: 2 to 3 h; inhibition (Rattus norvegicus): Active
27%	21%	CC[C@H](C)[C@H](NC(=O)[C@H](CC1CCCCC1)NC(=O)c1ccon1)C(=O)N1CCC2(C=Cc3ccccc32)CC1	
	11%	NCC[C@H](NC(=O)[C@H](CC1CCCCC1)NC(=O)c1ccno1)C(=O)N1CCC2(C=Cc3ccccc32)CC1	
	62 to 70%	CC[C@H](C)[C@H](NC(=O)[C@H](CC1CCCCC1)NC(=O)c1ccno1)C(=O)N1CCC2(CC1)OC(=O)c1ccccc12	EC50 [5]: 700 to 1800 nM
43 to 69%		CC[C@H](C)[C@H](NC(=O)[C@H](CC1CCCCC1)NC(=O)c1ccno1)C(=O)N1CCC(c2ccccc2C(F)(F)F)CC1	
	30 to 50%	CC[C@H](C)[C@H](NC(=O)[C@H](CC1CCCCC1)NC(=O)c1ccno1)C(=O)N1CCN(Cc2ccc(F)cc2)CC1	
43 to 69%		CC[C@H](C)[C@H](NC(=O)[C@H](CC1CCCCC1)NC(=O)c1ccno1)C(=O)N1CCC(c2ccc(OC)cc2)CC1	
62%		CC[C@H](C)[C@H](NC(=O)[C@H](CC1CCCCC1)NC(=O)c1cc(CN)no1)C(=O)N1CCC2(C=Cc3ccccc32)CC1	IC50 ([3]; read-out: IC50): 8900 nM; IC50 ([3]; read-out: pIC50 (converted)): 10000 nM; solubility [4]: Soluble
	53 to 81%	CO[C@H](C)[C@H](NC(=O)[C@H](CC1CCCCC1)NC(=O)c1ccno1)C(=O)N1CCC2(C=Cc3ccccc32)CC1	
	65%	CC[C@H](C)[C@H](NC(=O)[C@H](CC1CCCCC1)NC(=O)c1ccno1)C(=O)N1CCC2(CC1)c1ccccc1C1OC12 (some centres undefined)	EC50 [5]: 700 to 1800 nM
43 to 69%		CC[C@H](C)[C@H](NC(=O)[C@H](CC1CCCCC1)NC(=O)c1ccno1)C(=O)N1CCC(c2ccc(Cl)cc2)CC1	
10 to 16%		CC(C)(NC(=O)[C@H](CC1CCCCC1)NC(=O)c1ccno1)C(=O)N1CCC2(C=Cc3ccccc32)CC1	

Source: ChEMBL document CHEMBL3865852, “PAR2 Modulators Derived from GB88” (ACS Med Chem Lett, 2016)
